≈ marks a conversion by molar mass, not a printed value.
Columns and labels:
E. coli 25922 = assay: Dilution antimicrobial susceptibility test (M07-A8), E. coli; type: cell-based, Escherichia coli; settings: for MIC: Escherichia coli, antibacterial activity by dilution susceptibility test, isolate 25922; for E. coli/P. multocida: selectivity for P. multocida over E. coli (ratio of the two values)
Method: (§1) Compounds of the present invention were tested against an assortment of Gram-negative and Gram-positive organisms using the industrial standard techniques described in Methods for Dilution Antimicrobial Susceptibility Tests for Bacteria That grow Aerobically; Approved Standard-Eighth Edition, […]-A8, Vol. 29 No. 2 Replaces […]-A7 Vol. 26 No. 2. […] When comparing the activity against these isolates with that of the marketed human health drug of cefepime (screened in the same panel), the exemplified compounds of the present invention show >200 times more selectivity over E. coli.

M. haemo 43411 = assay: Dilution antimicrobial susceptibility test (M07-A8), M. haemolytica; type: cell-based; settings: Mannheimia haemolytica; antibacterial activity by dilution susceptibility test, isolate 43411
Method: as §1

P. multo 43719 = assay: Dilution antimicrobial susceptibility test (M07-A8), P. multocida; type: cell-based; settings: Pasteurella multocida; antibacterial activity by dilution susceptibility test, isolate 43719
Method: as §1

SMILES | MIC (E. coli 25922) | MIC (P. multo 43719) | E. coli/P. multocida (E. coli 25922) | MIC (M. haemo 43411)
CO/N=C(\C(=O)N[C@@H]1C(=O)N2C(C(=O)O)=C(Cc3cc(S(=O)(=O)NCCSC(C)=O)ccc3C)CS[C@H]12)c1csc(N)n1 [Example 20, (6R,7R)-3-(5-{[2-(acetylsulfanyl)ethyl]sulfamoyl}-2-methylbenzyl)-7-{[(2Z)-2-(2-amino-1,3-thiazol-4-yl)-2-(methoxyimino)acetyl]amino}-8-oxo-5-thia-1-azabicyclo[4.2.0]oct-2-ene-2-carboxyl is acid] | 64 µg/mL (≈ 95.7 µM) | 0.25 µg/mL (≈ 0.374 µM) | 256 | 0.25 µg/mL (≈ 0.374 µM)
CCN(CCSC(C)=O)S(=O)(=O)c1cccc(CC2=C(C(=O)O)N3C(=O)[C@@H](NC(=O)/C(=N\OC)c4csc(N)n4)[C@H]3SC2)c1 [Example 21, (6R,7R)-3-(3-{[2-(acetylsulfanyl)ethyl](ethyl)sulfamoyl}benzyl)-7-{[(2Z)-2-(2-amino-1,3-thiazol-4-yl)-2-(methoxyimino)acetyl]amino}-8-oxo-5-thia-1-azabicyclo[4.2.0]oct-2-ene-2-carboxylic acid] | 32 µg/mL (≈ 46.9 µM) | 0.03 µg/mL (≈ 0.0439 µM) | 1066 | 0.125 µg/mL (≈ 0.183 µM)
CNS(=O)(=O)c1ccc(OC)c(CC2=C(C(=O)O)N3C(=O)[C@@H](NC(=O)/C(=N\OC)c4csc(N)n4)[C@H]3SC2)c1 [Example 22, (6R,7R)-7-{[(2Z)-2-(2-amino-1,3-thiazol-4-yl)-2-(methoxyimino)acetyl]amino}-3-[2-methoxy-5-(methylsulfamoyl)benzyl]-8-oxo-5-thia-1-azabicyclo[4.2.0]oct-2-ene-2-carboxylic acid] | 64 µg/mL (≈ 107 µM) | 0.25 µg/mL (≈ 0.419 µM) | 256 | 0.125 µg/mL (≈ 0.209 µM)
CNS(=O)(=O)c1cccc(CC2=C(C(=O)O)N3C(=O)[C@@H](NC(=O)/C(=N\OC)c4csc(N)n4)[C@H]3SC2)c1 [Example 23, (6R,7R)-7-{[(2Z)-2-(2-amino-1,3-thiazol-4-yl)-2-(methoxyimino)acetyl]amino}-3-[3-(methylsulfamoyl)benzyl]-8-oxo-5-thia-1-azabicyclo[4.2.0]oct-2-ene-2-carboxylic acid] | 16 µg/mL (≈ 28.2 µM) | 0.125 µg/mL (≈ 0.221 µM) | 128 | 0.06 µg/mL (≈ 0.106 µM)
CO/N=C(\C(=O)N[C@@H]1C(=O)N2C(C(=O)O)=C(Cc3cccc(S(=O)(=O)N(C)C)c3)CS[C@H]12)c1csc(N)n1 [Example 25, (6R,7R)-7-{[(2Z)-2-(2-amino-1,3-thiazol-4-yl)-2-(methoxyimino)acetyl]amino}-3-[3-(dimethylsulfamoyl)benzyl]-8-oxo-5-thia-1-azabicyclo[4.2.0]oct-2-ene-2-carboxylic acid] | 8 µg/mL (≈ 13.8 µM) | 0.008 µg/mL (≈ 0.0138 µM) | 1000 | 0.008 µg/mL (≈ 0.0138 µM)
CNS(=O)(=O)c1cc(C)cc(CC2=C(C(=O)O)N3C(=O)[C@@H](NC(=O)/C(=N\OC)c4csc(N)n4)[C@H]3SC2)c1 [Example 27, (6R,7R)-7-{[(2Z)-2-(2-amino-1,3-thiazol-4-yl)-2-(methoxyimino)acetyl]amino}-3-[3-methyl-5-(methylsulfamoyl)benzyl]-8-oxo-5-thia-1-azabicyclo[4.2.0]oct-2-ene-2-carboxylic acid] | 8 µg/mL (≈ 13.8 µM) | 0.015 µg/mL (≈ 0.0258 µM) | 533 | 0.008 µg/mL (≈ 0.0138 µM)

Stronger by MIC (E. coli 25922), values ahead:

MIC (E. coli 25922) | MIC (P. multo 43719) | SMILES | E. coli/P. multocida (E. coli 25922) | MIC (M. haemo 43411)
4 µg/mL (≈ 6.89 µM) | 0.015 µg/mL (≈ 0.0258 µM) | CNS(=O)(=O)c1ccc(C)c(CC2=C(C(=O)O)N3C(=O)[C@@H](NC(=O)/C(=N\OC)c4csc(N)n4)[C@H]3SC2)c1 [Example 24, (6R,7R)-7-{[(2Z)-2-(2-amino-1,3-thiazol-4-yl)-2-(methoxyimino)acetyl]amino}-3-[2-methyl-5-(methylsulfamoyl)benzyl]-8-oxo-5-thia-1-azabicyclo[4.2.0]oct-2-ene-2-carboxylic acid] | 266 | 0.008 µg/mL (≈ 0.0138 µM)
4 µg/mL (≈ 6.7 µM) | 0.015 µg/mL (≈ 0.0251 µM) | CNS(=O)(=O)c1cc(CC2=C(C(=O)O)N3C(=O)[C@@H](NC(=O)/C(=N\OC)c4csc(N)n4)[C@H]3SC2)cc(OC)c1 [Example 26, (6R,7R)-7-{[(2Z)-2-(2-amino-1,3-thiazol-4-yl)-2-(methoxyimino)acetyl]amino}-3-[3-methoxy-5-(methylsulfamoyl)benzyl]-8-oxo-5-thia-1-azabicyclo[4.2.0]oct-2-ene-2-carboxylic acid] | 266 | 0.008 µg/mL (≈ 0.0134 µM)
4 µg/mL (≈ 7.07 µM) | 0.03 µg/mL (≈ 0.053 µM) | CO/N=C(\C(=O)N[C@@H]1C(=O)N2C(C(=O)O)=C(Cc3ccc(S(C)(=O)=O)cc3C)CS[C@H]12)c1csc(N)n1 [Example 28, (6R,7R)-7-{[(2Z)-2-(2-amino-1,3-thiazol-4-yl)-2-(methoxyimino)acetyl]amino}-3-[2-methyl-4-(methylsulfonyl)benzyl]-8-oxo-5-thia-1-azabicyclo[4.2.0]oct-2-ene-2-carboxylic acid] | 133 | 0.06 µg/mL (≈ 0.106 µM)

Source: patent US8722656B2, “Cephalosporins useful as antibacterial agents” (Zoetis LLC, priority 2011, dated 2014)
